What all share (assay type): cell-based
Assay [1] relates to Fusarium moniliforme (Fm). As to the kind of experiment: Growth inhibition assay of fungal pathogens, Fm. The settings on record: for IC90: Fusarium verticillioides, 48 h, read-out: Concentration at 90% Inhibition Fm. The gist of the method:
(§1)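 Spore suspension in 17% V8 liquid media; cpd final 50/10/2 or 2/0.4/0.08 ppm, 2% DMSO. OD600 + visual, 24 & 48 h; % inhibition at 48 h vs 2% DMSO ctrl.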

In another assay the test system is Septoria tritici (St). Briefly: Growth inhibition assay of fungal pathogens, St. To be noted: Zymoseptoria tritici, 48 h. The gist of the method:
as §1

For assay [2], the system named is Collectotrichum graminicola (Cg). As to the kind of experiment: Growth inhibition assay of fungal pathogens, Cg. To be noted: 48 h. The gist of the method: as §1
[3] abbreviates: Fusarium moniliforme, growth inhibition at 48 hours vs 2% DMSO control.
[4] abbreviates: read-out: Concentration at 90% Inhibition St, Septoria tritici, growth inhibition at 48 hours vs 2% DMSO control.
The mark [5] stands for this setting: read-out: Concentration at 90% Inhibition St, Septoria tritici, growth inhibition vs 2% DMSO control at 48 hours.
[6] abbreviates: read-out: Concentration at 90% Inhibition Cg, Collectotrichum graminicola, growth inhibition at 48 hours vs 2% DMSO control.
Where [7] appears, read: read-out: Concentration at 90% Inhibition Cg, Collectotrichum graminicola, growth inhibition vs 2% DMSO control at 48 hours.
Setting [8] is: Fusarium moniliforme, growth inhibition vs 2% DMSO control at 48 hours.
Setting [9] is: Septoria tritici, growth inhibition at 48 hours vs 2% DMSO control, read-out: Concentration at 90% Inhibition St.
The mark [10] stands for this setting: Septoria tritici, growth inhibition vs 2% DMSO control at 48 hours, read-out: Concentration at 90% Inhibition St.
Setting [11] is: Collectotrichum graminicola, growth inhibition at 48 hours vs 2% DMSO control, read-out: Concentration at 90% Inhibition Cg.
Where [12] appears, read: Collectotrichum graminicola, growth inhibition vs 2% DMSO control at 48 hours, read-out: Concentration at 90% Inhibition Cg.

Values after ≈ are worked out from the molar mass of the structure shown. Where two headings read alike, the source gives them in different places.

Consider twelve compounds from US10800791B2, “Triazole ACC inhibitors and uses thereof” (Gilead Apollo, LLC, priority 2015, dated 2020).

In the case of `COc1ccccc1[C@H](Cn1c(=O)n(C(C)(C)C(=O)N2CC(O)C2)c(=O)c2c(C)c(-n3nccn3)sc21)OC1CCOCC1` [Compound I-19, (R)-3-(1-(3-hydroxyazetidin-1-yl)-2-methyl-1-oxopropan-2-yl)-1-(2-(2-methoxyphenyl)-2-((tetrahydro-2H-pyran-4-yl)oxy)ethyl)-5-methyl-6-(2H-1,2,3-triazol-2-yl)thieno[2,3-d]pyrimidine-2,4(1H,3H)-dione], the “Concentration at 90% Inhibition Fm” value in assay [1] (setting [3]) is listed as “B (compound concentration of 2.0 ppm at 90% inhibition of fungal pathogens)”. Further, the IC90 was 2 µg/mL (≈ 3.2 µM) in assay [1]; greater than 50 µg/mL in the assay with Septoria tritici (St) (setting [4]); greater than 50 µg/mL in the assay with Septoria tritici (St) (setting [5]); greater than 50 µg/mL in assay [2] (setting [6]); greater than 50 µg/mL in assay [2] (setting [7]).
With `COc1ccc(F)cc1[C@H](Cn1c(=O)n(C(C)(C)C(=O)N2CCCCC2)c(=O)c2c(C)c(-n3nccn3)sc21)OC1CCOCC1` [Compound I-24, (R)-1-(2-(5-fluoro-2-methoxyphenyl)-2-((tetrahydro-2H-pyran-4-yl)oxy)ethyl)-5-methyl-3-(2-methyl-1-oxo-1-(piperidin-1-yl)propan-2-yl)-6-(2H-1,2,3-triazol-2-yl)thieno[2,3-d]pyrimidine-2,4(1H,3H)-dione], in assay [1] (setting [3]), the “Concentration at 90% Inhibition Fm” value is given as “AA (compound concentration of 0.08 ppm at 90% inhibition of fungal pathogens)”. Also, the IC90 in assay [1] was found to be 0.08 µg/mL (≈ 0.122 µM); in the assay with Septoria tritici (St) (setting [4]), 2 µg/mL (≈ 3.05 µM); in the assay with Septoria tritici (St) (setting [5]), 10 µg/mL (≈ 15.3 µM); in assay [2] (setting [6]), 0.08 µg/mL (≈ 0.122 µM); in assay [2] (setting [7]) it was 0.08 µg/mL (≈ 0.122 µM).
As to `COc1ccc(F)cc1[C@H](Cn1c(=O)n(C(C)(C)C(=O)N2CC(O)C2)c(=O)c2c(C)c(-n3nccn3)sc21)OC1CCOCC1` [Compound I-26, (R)-1-(2-(5-fluoro-2-methoxyphenyl)-2-((tetrahydro-2H-pyran-4-yl)oxy)ethyl)-3-(1-(3-hydroxyazetidin-1-yl)-2-methyl-1-oxopropan-2-yl)-5-methyl-6-(2H-1,2,3-triazol-2-yl)thieno[2,3-d]pyrimidine-2,4(1H,3H)-dione], the IC90 was 0.4 µg/mL (≈ 0.622 µM) in assay [1] (setting [3]); 0.4 µg/mL (≈ 0.622 µM) in assay [1] (setting [8]); greater than 50 µg/mL in the assay on Septoria tritici (St) (setting [9]); greater than 50 µg/mL with Septoria tritici (St) (setting [10]); 10 µg/mL (≈ 15.6 µM) in assay [2] (setting [11]); greater than 50 µg/mL in assay [2] (setting [12]).
Turning to `COc1ccc(F)cc1[C@H](Cn1c(=O)n(C(C)(C)C(=O)NC2CCC2)c(=O)c2c(C)c(-n3nccn3)sc21)OC1CCOCC1` [Compound I-27, (R)—N-cyclobutyl-2-(1-(2-(5-fluoro-2-methoxyphenyl)-2-((tetrahydro-2H-pyran-4-yl)oxy)ethyl)-5-methyl-2,4-dioxo-6-(2H-1,2,3-triazol-2-yl)-1,4-dihydrothieno[2,3-d]pyrimidin-3(2H)-yl)-2-methylpropanamide], the IC90 in assay [1] (setting [3]) turned out to be 0.08 µg/mL (≈ 0.125 µM); in assay [1] (setting [8]), 0.08 µg/mL (≈ 0.125 µM); in the assay on Septoria tritici (St) (setting [9]), 2 µg/mL (≈ 3.12 µM); in the assay with Septoria tritici (St) (setting [10]) it was 10 µg/mL (≈ 15.6 µM); in assay [2] (setting [11]) it was 0.4 µg/mL (≈ 0.624 µM); in assay [2] (setting [12]) it was 0.4 µg/mL (≈ 0.624 µM).
`COc1ccc(F)cc1[C@H](Cn1c(=O)n(C(C)(C)C(=O)NC2CCCCC2)c(=O)c2c(C)c(-n3nccn3)sc21)OC1CCOCC1` [Compound I-28, (R)—N-cyclohexyl-2-(1-(2-(5-fluoro-2-methoxyphenyl)-2-((tetrahydro-2H-pyran-4-yl)oxy)ethyl)-5-methyl-2,4-dioxo-6-(2H-1,2,3-triazol-2-yl)-1,4-dihydrothieno[2,3-d]pyrimidin-3(2H)-yl)-2-methylpropanamide]: the “Concentration at 90% Inhibition Fm” value in assay [1] (setting [3]) was “AA (compound concentration of 0.08 ppm at 90% inhibition of fungal pathogens)”. The IC90 in assay [1] came out at 0.08 µg/mL (≈ 0.12 µM); in the assay on Septoria tritici (St) (setting [4]), 2 µg/mL (≈ 2.99 µM); in the assay on Septoria tritici (St) (setting [5]), 10 µg/mL (≈ 15 µM); in assay [2] (setting [6]), 2 µg/mL (≈ 2.99 µM); in assay [2] (setting [7]), 2 µg/mL (≈ 2.99 µM).
With `COc1ccc(F)cc1[C@H](Cn1c(=O)n(C(C)(C)C(=O)NCC(C)C)c(=O)c2c(C)c(-n3nccn3)sc21)OC1CCOCC1` [Compound I-29, (R)-2-(1-(2-(5-fluoro-2-methoxyphenyl)-2-((tetrahydro-2H-pyran-4-yl)oxy)ethyl)-5-methyl-2,4-dioxo-6-(2H-1,2,3-triazol-2-yl)-1,4-dihydro-thieno[2,3-d]pyrimidin-3(2H)-yl)-N-isobutyl-2-methylpropanamide], the IC90 in assay [1] (setting [3]) is 0.08 µg/mL (≈ 0.124 µM); in assay [1] (setting [8]), 0.08 µg/mL (≈ 0.124 µM); in the assay with Septoria tritici (St) (setting [9]) it was 10 µg/mL (≈ 15.6 µM); with Septoria tritici (St) (setting [10]) it was greater than 50 µg/mL; in assay [2] (setting [11]), 0.4 µg/mL (≈ 0.622 µM); in assay [2] (setting [12]), 0.4 µg/mL (≈ 0.622 µM).
Regarding `COc1ccc(F)cc1[C@H](Cn1c(=O)n(C(C)(C)C(N)=O)c(=O)c2c(C)c(-n3nccn3)sc21)OC1CCC(=O)CC1` [Compound I-31, (R)-2-(1-(2-(5-fluoro-2-methoxyphenyl)-2-((4-oxocyclo-hexyl)oxy)ethyl)-5-methyl-2,4-dioxo-6-(2H-1,2,3-triazol-2-yl)-1,4-dihydrothieno[2,3-d]pyrimidin-3(2H)-yl)-2-methylpropanamide], the IC90 was 0.4 µg/mL (≈ 0.668 µM) in assay [1] (setting [3]); 0.4 µg/mL (≈ 0.668 µM) in assay [1] (setting [8]); greater than 50 µg/mL in the assay with Septoria tritici (St) (setting [9]); greater than 50 µg/mL in the assay on Septoria tritici (St) (setting [10]); 10 µg/mL (≈ 16.7 µM) in assay [2] (setting [11]); greater than 50 µg/mL in assay [2] (setting [12]).
For `COc1ccc(F)cc1[C@H](Cn1c(=O)n(C(C)(C)C(=O)NC(C)C)c(=O)c2c(C)c(-n3nccn3)sc21)OC1CCC(=O)CC1` [Compound I-32, (R)-2-(1-(2-(5-fluoro-2-methoxyphenyl)-2-((4-oxocyclo-hexyl)oxy)ethyl)-5-methyl-2,4-dioxo-6-(2H-1,2,3-triazol-2-yl)-1,4-dihydro-thieno[2,3-d]pyrimidin-3(2H)-yl)-N-isopropyl-2-methylpropanamide], in assay [1] (setting [3]), the “Concentration at 90% Inhibition Fm” value is listed as “AA (compound concentration of 0.08 ppm at 90% inhibition of fungal pathogens)”. Moreover, the IC90 in assay [1] was 0.08 µg/mL (≈ 0.125 µM); in the assay with Septoria tritici (St) (setting [4]) it was greater than 50 µg/mL; with Septoria tritici (St) (setting [5]) it was greater than 50 µg/mL; in assay [2] (setting [6]) it was 2 µg/mL (≈ 3.12 µM); in assay [2] (setting [7]) it was 2 µg/mL (≈ 3.12 µM).
Consider `COc1ccc(F)cc1[C@H](Cn1c(=O)n(C(C)(C)C(=O)N2CCCC2)c(=O)c2c(C)c(-n3nccn3)sc21)OC1CCC(=O)CC1` [Compound I-33, (R)-1-(2-(5-fluoro-2-methoxyphenyl)-2-((4-oxocyclo-hexyl)oxy)ethyl)-5-methyl-3-(2-methyl-1-oxo-1-(pyrrolidin-1-yl)propan-2-yl)-6-(2H-1,2,3-triazol-2-yl)thieno[2,3-d]pyrimidine-2,4(1H,3H)-dione], for which the IC90 in assay [1] (setting [3]) is 0.08 µg/mL (≈ 0.123 µM); in assay [1] (setting [8]) it was 0.08 µg/mL (≈ 0.123 µM); with Septoria tritici (St) (setting [9]) it was greater than 50 µg/mL; with Septoria tritici (St) (setting [10]), greater than 50 µg/mL; in assay [2] (setting [11]) it was 0.4 µg/mL (≈ 0.613 µM); in assay [2] (setting [12]) it was 0.4 µg/mL (≈ 0.613 µM).
For `COc1ccc(F)cc1[C@H](Cn1c(=O)n(C(C)(C)C(=O)N2CCCCC2)c(=O)c2c(C)c(-n3nccn3)sc21)OC1CCC(=O)CC1` [Compound I-34, (R)-1-(2-(5-fluoro-2-methoxyphenyl)-2-((4-oxocyclohexyl)oxy)ethyl)-5-methyl-3-(2-methyl-1-oxo-1-(piperidin-1-yl)propan-2-yl)-6-(2H-1,2,3-triazol-2-yl)thieno[2,3-d]pyrimidine-2,4(1H,3H)-dione], the “Concentration at 90% Inhibition Fm” value in assay [1] (setting [3]) is recorded as “AA (compound concentration of 0.08 ppm at 90% inhibition of fungal pathogens)”. Also, the IC90 in assay [1] was 0.08 µg/mL (≈ 0.12 µM); with Septoria tritici (St) (setting [4]) it was greater than 50 µg/mL; with Septoria tritici (St) (setting [5]) it was greater than 50 µg/mL; in assay [2] (setting [6]), 0.4 µg/mL (≈ 0.6 µM); in assay [2] (setting [7]), 0.4 µg/mL (≈ 0.6 µM).
As to `COc1ccc(F)cc1[C@H](Cn1c(=O)n(CC(=O)NC(C)C)c(=O)c2c(C)c(-n3nccn3)sc21)OC(C)C` [Compound I-35, (R)-2-(1-(2-(5-fluoro-2-methoxyphenyl)-2-isopropoxy-ethyl)-5-methyl-2,4-dioxo-6-(2H-1,2,3-triazol-2-yl)-1,4-dihydrothieno[2,3-d]pyrimidin-3(2H)-yl)-N-isopropylacetamide], the “Concentration at 90% Inhibition Fm” value in assay [1] (setting [3]) was “AA (compound concentration of 0.08 ppm at 90% inhibition of fungal pathogens)”. Also, the IC90 in assay [1] is 0.08 µg/mL (≈ 0.143 µM); with Septoria tritici (St) (setting [4]), greater than 50 µg/mL; with Septoria tritici (St) (setting [5]) it was greater than 50 µg/mL; in assay [2] (setting [6]) it was greater than 50 µg/mL; in assay [2] (setting [7]) it was greater than 50 µg/mL.
Regarding `CCO[C@@H](Cn1c(=O)n(C(C)(C)C(=O)N2CCCC2)c(=O)c2c(C)c(-n3nccn3)sc21)c1cc(F)ccc1OC` [Compound I-42, (R)-1-(2-ethoxy-2-(5-fluoro-2-methoxyphenyl)ethyl)-5-methyl-3-(2-methyl-1-oxo-1-(pyrrolidin-1-yl)propan-2-yl)-6-(2H-1,2,3-triazol-2-yl)thieno[2,3-d]pyrimidine-2,4(1H,3H)-dione], the IC90 is 0.08 µg/mL (≈ 0.137 µM) in assay [1] (setting [3]); 0.08 µg/mL (≈ 0.137 µM) in assay [1] (setting [8]); 2 µg/mL (≈ 3.42 µM) in the assay with Septoria tritici (St) (setting [9]); 10 µg/mL (≈ 17.1 µM) in the assay with Septoria tritici (St) (setting [10]); 0.08 µg/mL (≈ 0.137 µM) in assay [2] (setting [11]); 0.08 µg/mL (≈ 0.137 µM) in assay [2] (setting [12]).
